This assay relates to CCRF-CEM. Kind of assay: In vitro cytotoxicity against human leukemia CCRF-CEM cell line. In kind it is functional, cell-based.

In general, IC50 refers to the concentration needed to halve the response being measured. Lower therefore signals higher potency.

In turn, `COc1ccc(C[C@H]2NC(=O)/C=C/C[C@@H]([C@H](C)[C@@H](O)[C@@H](Cl)c3ccccc3)OC(=O)[C@H](CC(C)C)OC(=O)C3(CCCCC3)CNC2=O)cc1Cl` returned a 50% inhibitory concentration (IC50) of 110 nM.
Then `COc1ccc(C[C@H]2NC(=O)/C=C/C[C@@H]([C@H](C)[C@H]3O[C@@H]3c3ccccc3)OC(=O)[C@H](CC(C)C)OC(=O)C3(CC3)CNC2=O)cc1Cl`, with 0.16 nM; and `CCCC1(CCC)CNC(=O)[C@@H](Cc2ccc(OC)c(Cl)c2)NC(=O)/C=C/C[C@@H]([C@H](C)[C@@H](O)[C@@H](Cl)c2ccccc2)OC(=O)[C@H](CC(C)C)OC1=O`, with 8.7 nM; and `COc1ccc(C[C@H]2NC(=O)/C=C/C[C@@H]([C@H](C)[C@@H](O)[C@@H](Cl)c3ccccc3)OC(=O)[C@H](CC(C)C)NC(=O)C3(CC3)CNC2=O)cc1Cl`, with 0.01 nM.
In turn, `CCC1(CC)CNC(=O)[C@@H](Cc2ccc(OC)c(Cl)c2)NC(=O)/C=C/C[C@@H]([C@H](C)[C@H]2O[C@@H]2c2ccccc2)OC(=O)[C@H](CC(C)C)OC1=O` came in with a concentration for half-maximal inhibition (IC50) of 1.1 nM.
Next, `COc1ccc(C[C@H]2NC(=O)/C=C/C[C@@H]([C@H](C)[C@@H](O)[C@@H](Cl)c3ccccc3)OC(=O)[C@H](CC(C)C)OC(=O)C3(CC3)CNC2=O)cc1Cl`: 0.014 nM.
Next, `CCCC1(CCC)CNC(=O)[C@@H](Cc2ccc(OC)c(Cl)c2)NC(=O)/C=C/C[C@@H]([C@H](C)[C@H]2O[C@@H]2c2ccccc2)OC(=O)[C@H](CC(C)C)OC1=O`: 8.5 nM; `COc1ccc(C[C@H]2NC(=O)/C=C/C[C@@H]([C@H](C)[C@@H](O)[C@@H](Cl)c3ccccc3)OC(=O)[C@H](CC(C)C)OC(=O)C(C)(C)CNC2=O)cc1Cl`: 0.05 nM; `COc1ccc(C[C@H]2NC(=O)/C=C/C[C@@H]([C@H](C)[C@@H](O)[C@@H](Cl)c3ccccc3)OC(=O)[C@H](CC(C)C)NC(=O)C(C)(C)CNC2=O)cc1Cl`: 0.016 nM.
`COc1ccc(C[C@H]2NC(=O)/C=C/C[C@@H]([C@H](C)[C@@H](O)[C@@H](Cl)c3ccccc3)OC(=O)[C@H](CC(C)C)OC(=O)C3(CCCC3)CNC2=O)cc1Cl`: the midpoint of inhibition, the IC50, lay at 0.4 nM.
For the compound `CCC1(CC)CNC(=O)[C@@H](Cc2ccc(OC)c(Cl)c2)NC(=O)/C=C/C[C@@H]([C@H](C)[C@@H](O)[C@@H](Cl)c2ccccc2)OC(=O)[C@H](CC(C)C)OC1=O`, the 50% inhibitory concentration (IC50) was 1.6 nM. This IC50 lies about 4-fold higher than the previous one.
For `COc1ccc(C[C@H]2NC(=O)/C=C/C[C@@H]([C@H](C)[C@H]3O[C@@H]3c3ccccc3)OC(=O)[C@H](CC(C)C)OC(=O)C3(CCCCC3)CNC2=O)cc1Cl`, the IC50 was determined as 63 nM.
Next, `COc1ccc(C[C@H]2NC(=O)/C=C/C[C@@H]([C@H](C)[C@H]3O[C@@H]3c3ccccc3)OC(=O)[C@H](CC(C)C)OC(=O)C3(CCCC3)CNC2=O)cc1Cl`: 0.3 nM; `COc1ccc(C[C@H]2NC(=O)/C=C/C[C@@H]([C@H](C)[C@H]3O[C@@H]3c3ccccc3)OC(=O)[C@H](CC(C)C)OC(=O)C(C)(C)CNC2=O)cc1Cl` [CRYPTOPHYCIN 52]: 0.02 nM.

(Values after ChEMBL document CHEMBL1131922, “Synthesis and biological evaluation of cryptophycin analogs with substitution at C-6 (fragment C region)” (Bioorg Med Chem Lett, 1999).)
